Laboratory results: patent US20210317102A1, “INHIBITORS OF INTEGRATED STRESS RESPONSE PATHWAY” (Praxis Biotech LLC, priority 2019, published 2021)
pIC50: −log10 of the molar value.

What was measured:
Format in all cases: cell-based
[1] = tested on: ATF4 expression, HEK293T cells carrying the ATF4 luciferase reporter; assay: ATF4 expression inhibition assay (ATF4 luciferase reporter); conditions: Homo sapiens, HEK-293T, 100 nM thapsigargin, 3 hours
Procedure, shortened: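 Stable HEK293T line expressing firefly luciferase behind the human full-length ATF4 5′UTR; cells stressed with 100 nM thapsigargin alongside compound (1 nM–10 μM) for 3 h at 37 °C. Luminescence normalized to Tg alone (0% inhibition) and untreated cells (100% inhibition) to give % ATF4 inhibition.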

[2] = tested on: L-Wnt-3A cells; assay: Secretion of Wnt-3A by L-Wnt-3A cells; conditions: 1 µM compound 10, DMEM with reduced FBS (1%), 24 hours, vs vehicle
Procedure: L-Wnt-3A cells (ATCC® CRL-2647™) were maintained at 37° C. and 5% CO2 in DMEM supplemented with 10% fetal bovine serum (FBS), 2 mM L-glutamine, 100 U/ml penicillin, and 100 μg/ml streptomycin. After reaching 80% of confluence, cells were detached and seeded on 6-well plates in complete media, allowed to recover for 48 h. Cells were then washed three times with PBS and treated with vehicle (1% DMSO) or 1 µM compound 10 in DMEM with reduced FBS (1%) for 24 hours. Then, culture media with cells were recovered in microtubes and centrifuged at 500 g for 5 minutes. Supernatants (SN) which contain secreted proteins were extracted and protease and phosphatase inhibitors (Roche) were added to each sample. SN were centrifuged at 2,000 g for 10 min to discard any cellular debris and 900 μL SN were transferred to empty microtubes with […] methanol by mixing well. 200 μL of chloroform was added to the mix and then samples were centrifuged at 14,000 g for 2 minutes. […] Quantification of protein bands was done by densitometry using ImageJ software.
Percent of secreted Wnt-3A by L-Wnt3A cells treated with vehicle or compound 10 from two independent experiments is shown in FIG. 5. Percentage was calculated as the percent relative to […] secretion levels from L-Wnt-3A cells treated with vehicle which correspond to 100%.

[3] = tested on: ARH cells; assay: Secretion of Ig-kappa by ARH cells; conditions: 1 µM of compound 10 for 24 hours, vs vehicle (0.1% DMSO)
Procedure: ARH cells were maintained at 37° C. and 5% CO2 and seeded at a density of 500,000 cell/well in RPMI supplemented with, 100 U/ml penicillin, and 100 μg/ml streptomycin in a 12-well culture plate. Cells were treated either with vehicle (0.1% DMSO) or […] of compound 10 for 24 hours. Then, culture media with cells were recovered in microtubes and centrifuged at 500 g for 5 minutes. Supernatants (SN) which contain secreted proteins were extracted and protease and phosphatase inhibitors (Roche) were added to each sample. SN were centrifuged at 2,000 g for 10 min to discard any cellular debris and 900 μL SN were transferred to empty microtubes with 400 μL methanol by mixing well. 200 μL of chloroform was added to the mix and then samples were centrifuged at 14,000 g for 2 minutes. Top aqueous layer was discarded by pipetting off and 400 μL methanol was added to each sample by mixing well. Samples were then centrifuged at 17,000 g for 8 minutes and methanol was discarded by pipetting off without disturbing the protein pellet. […] Quantification of protein bands was done by densitometry using ImageJ software.
Percent of secreted Ig kappa light chain by ARH cells treated with vehicle or compound 10 from three independent experiments is shown in FIG. 4. Percentage was calculated as the percent relative to Ig kappa secretion levels from ARH cells treated with vehicle which correspond to 100%.

For O=C(COc1ccc(Cl)c(F)c1)N[C@H]1CC[C@H](CNC(=O)c2ccc3cc(Cl)ccc3n2)CC1 [Compound 10, trans-6-chloro-N-((4-(2-(4-chloro-3-fluorophenoxy)acetamido)cyclohexyl)methyl)quinoline-2-carboxamide], the pIC50 [1] was 6.97, the “Secretion of Wnt-3A” value [2] was “increased the secretion of a particular protein (Wnt-3A)” and the “Secretion of Ig kappa light chain” value [3] was “increased the secretion of the immunoglobulin light chain kappa”.
